According to patent US12686701B2, “Substitution of histidine with 2-thiohistidine in bioactive peptides” (University of Vermont and State Agricultural College, priority 2021, dated 2026):
Entries after “also recorded” stand apart in the source; their conditions may differ. *1 amine or outer side, *2 acyl side, *3 side chain or, on linkers, in order; H or OH if unused. Where a SMILES comes first, the peptide text is derived from it. [ ]: non-standard residue; d: D form. X1 = O=C([C@H](Cc1c[nH]c(=S)[nH]1)N[*:1])[*:2]

Experiments:
[1] = ABTS radical scavenging activity (UV-Vis, 734 nm); type: biochemical; conditions: for ABTS radical TEAC: Trolox equivalent antioxidant capacity, 10 min, PBS pH 7.2, average of three or more trials, ND = activity too low to be determined, TEAC close to zero; for ability to scavenge ABTS radical (in words): absorbance peak at 734 nm
Description: Measurement of 2,2′-azino-di-[3-ethylbenzthiazoline sulfonate (6)] (ABTS) radical scavenging activity. ABTS scavenging assays were performed according to previously published protocols with some modifications. A 10 mM stock solution of potassium persulfate was prepared in deionized water. A stock solution of ABTS was prepared by dissolving 7 mM ABTS and 2.45 mM potassium persulfate in deionized water. This solution was allowed to incubate at room temperature in the dark for 12-16 h to allow potassium persulfate to oxidize the ABTS. Following oxidation, the solution was a dark blue/green color. This solution was stable in the dark at room temperature for at least 48 h. This solution was diluted with 100 mM phosphate buffered saline, pH 7.2 so that the final absorbance was 0.70±0.02 at 734 nm. Stock solutions for all peptides and for Trolox were prepared in a range from 0.1 mM to 3.2 mM in 100 mM phosphate buffered saline, pH 7.2. To test the ability of Trolox and peptides to reduce the ABTS radical cation, samples were prepared with 990 μL of the diluted ABTS solution and 10 μL of each of the peptide or Trolox stock solutions. For every trial, one sample was prepared with 990 μL ABTS and 10 μL of buffer. The samples were allowed to incubate at room temperature in the dark for 10 min. The spectrophotometer was blanked with 1 mL of 100 mM phosphate buffered saline, pH 7.2 from 200-800 nm. Scans were taken for each of the samples and the change in absorbance at 734 nm was monitored. Every sample was run in triplicate and the results were averaged. The percentage of inhibition of ABTS oxidation was calculated using Equation 2.
(§1) [formula] where Acontrol is the absorbance of the control (ABTS and buffer only) and Asample is the absorbance at 734 nm of the test peptide/standard. A Trolox calibration curve was prepared with concentrations ranging from 1-32 μM (FIG. 14). Similar curves were prepared for each of the peptides (FIG. 14). These curves were used to calculate TEAC values for each of the peptides by calculating the ratio of peptide to Trolox to achieve the same percent reduction of ABTS.

[2] = DPPH radical scavenging activity (UV-Vis, 517 nm); type: biochemical; conditions: for DPPH Radical TEAC: Trolox equivalent antioxidant capacity, 50 μM DPPH, 15 min, pH 7.0, 60:40 ethanol:buffer, ND = activity too low to be determined, TEAC close to zero; for ability to scavenge DPPH radical (in words): absorbance peak at 517 nm
Description: Measurement of 2,2-diphenyl-1-picrylhydrazyl (DPPH) radical scavenging activity. DPPH activity assays were conducted according to procedures known in the art. A 1 mM stock solution of DPPH was prepared by dissolving DPPH in 95% ethanol. Peptide stock solutions were prepared at a concentration of 5 mM in 100 mM potassium phosphate buffer, pH 7.0 for each of the His- and 2-thioHis-containing peptides. 6-hydroxy-2,5,7,8-tetramethylchromane-2-carboxylic acid (Trolox) was used as a standard for antioxidant activity and a positive control. A 5 mM solution of Trolox in 100 mM potassium phosphate, pH 7.0 was prepared. A blank was prepared by mixing 600 μL of 95% ethanol with 400 μL of 100 mM potassium phosphate, pH 7.0 in a cuvette. This solution was used to blank the spectrophotometer from 200-800 nm. In each sample, a 60:40 ratio of ethanol:buffer was maintained. To test the ability of Trolox and the different peptides to reduce DPPH, 50 μM DPPH was combined with different concentrations of peptide or Trolox ranging from 5 μM to 500 μM and the total volume of each sample was adjusted to 1 mL with buffer and ethanol. The samples were allowed to incubate at room temperature in the dark for 15 min, after which each sample was scanned and changes in the absorbance at 517 nm were monitored. Trials were run in triplicate for each of the peptides and Trolox. For every trial, one sample was prepared with only 50 μM DPPH (no peptide or Trolox) to serve as a control. The percentage of inhibition of DPPH oxidation was calculated using Equation 1:
as §1, with “(DPPH” for “(ABTS”, “517” for “734”, “5-50” for “1-32”, “13).” for “14).”, “Trolox equivalent antioxidant capacity (TEAC)” for “TEAC”, “DPPH.” for “ABTS.”

[3] = Hydroxyl radical scavenging activity by room temperature EPR (Fenton reaction, DMPO spin trap); type: biochemical; conditions: for ability to scavenge ·OH (in words) / increase in ·OH scavenging ability on substituting 2-thioHis for His: 1 mM; for Hydroxyl Radical RSA (%): all analytes at 1 mM, potassium phosphate pH 7.4, average of three or more trials; for increase in ·OH scavenging ability on substituting 2-thioHis for His: difference of RSA versus His-containing counterpart
Description: Measurement of hydroxyl radical scavenging activity. Hydroxyl radical scavenging activity of peptides was measured with room temperature EPR spectroscopy according to known methods with some modifications. Hydroxyl radicals were generated by the iron-catalyzed Fenton Haber-Weiss reaction, and the generated hydroxyl radicals were reacted with the nitrone spin trap 5,5-dimethyl-1-pyrroline-N-oxide (DMPO). The resultant DMPO-OH adducts were detectable with EPR spectroscopy. The peptide (1 mM final concentration) was added to a solution containing: 24 mM DMPO, 0.8 mM FeSO4, and 0.8 mM H2O2 in 100 mM potassium phosphate buffer, pH 7.4 in a final reaction volume of 250 μL. This solution was immediately transferred into a 50 μL quartz capillary tube. After 5 min, the EPR spectrum was recorded using a Bruker X-band EPR spectrometer operating at 9.42 GHz. The experimental conditions employed were as follows: magnetic field, 336.5±10 mT; power, 2 mW; modulation amplitude, 2.00 G; time constant, 327.68 ms, modulation frequency, 100 kHz; receiver gain, 30 dB sweep time, 60 s. Trials were performed in triplicate for each peptide. The double integral of the EPR spectra was obtained and used to determine the signal intensity for each sample. The hydroxyl radical scavenging ability was calculated using Equation 3, in which H and H0 are relative peak height of radical signals with and without sample, respectively. [formula]

[4] = Low temperature (95 K) EPR of peptide-Cu(II) complexes; type: binding; conditions: from EPR spectra, not quantified
Description: Low temperature EPR studies. The ability of each peptide to bind Cu(II) was determined by low temperature (95 K) EPR spectroscopy using the methods known in the art with some modifications. Samples of 200 μM and 400 μM peptide were incubated for 10 min at room temperature with 200 μM CuCl2 in 100 mM potassium phosphate, pH 7.4. Following incubation, aliquots of each sample were transferred into 4 mm inner diameter quartz EPR tubes (Wilmad-LabGlass). The samples were frozen in liquid nitrogen and stored in liquid nitrogen prior to use. Control samples were prepared with only buffer and with 200 μM CuCl2 in potassium phosphate buffer. Low temperature EPR spectra were gathered with a Bruker EPR spectrometer operating at 9.42 GHz with the following parameters: scan range, 6000 G; field set, 3200 G; time constant, 164 ms; scan time, 60 s; modulation amplitude, 7.000 G; modulation frequency, 100 kHz; receiver gain, 30 dB; microwave power, 20 mW; and number of scans, 5.

Compound | ABTS radical TEAC [1] | DPPH Radical TEAC [2] | ability to scavenge ·OH (in words) [3] | Hydroxyl Radical RSA (%) [3] [%] | increase in ·OH scavenging ability on substituting 2-thioHis for His [3] [%] | ability to scavenge ABTS radical (in words) [1] | ability to scavenge DPPH radical (in words) [2] | affinity for / binding of Cu(II) (in words) [4]
Cc1c(C)c2c(c(C)c1O)CCC(C)(C(=O)O)O2 (centres unmarked) [Trolox, 6-hydroxy-2,5,7,8-tetramethylchromane-2-carboxylic acid, reference compound] | 1.00 | 1.00 | – | – | – | – | – | –
H-GthioHK-OH | 2.61 ± 0.01 | 0.95 ± 0.02 | highest RSA of all compounds tested; also recorded: nearly completely abolishing the signal | 97.0 ± 0.3 | 31.6 | completely reduce the DPPH and ABTS radicals; also recorded: slightly higher TEAC value than the other 2-thioHis peptides | completely reduce the DPPH and ABTS radicals | –
CC(C)C[C@H](NC(=O)[C@@H]1CCCN1C(=O)CNC(=O)[C@H](CC(C)C)NC(=O)[C@@H]1CCCN1C(=O)CNC(=O)[C@@H](N)Cc1c[nH]c(=S)[nH]1)C(=O)O [thioHGPLGPL, H-thioHGPLGPL-OH] (H-[X1]GPLGPL-OH) | 2.14 ± 0.02 | 0.95 ± 0.01 | equivalent to 2-thioHis itself | 59.7 ± 3.0 | 12 | – | – | –
N[C@@H](Cc1c[nH]cn1)C(=O)O [His, histidine] | – | – | – | 48.5 ± 7.3 | – | – | – | –
NC(Cc1c[nH]c(=S)[nH]1)C(=O)O [2-thioHis, L-2-thiohistidine] | 1.50 ± 0.03 | 1.00 ± 0.02 | – | 56.0 ± 2.1 | 7.5 | – | same ability as Trolox | –
H-βAthioH-OH [thioHcarnosine] | 2.25 ± 0.05 | 0.80 ± 0.01 | less than 2-thioHis | 43.5 ± 1.1 | 13 | – | – | higher affinity for Cu(II) than carnosine
HGPLGPL [H-HGPLGPL-OH, reference compound] | – | – | – | 46.8 ± 1.3 | – | – | – | –
NCCC(=O)N[C@@H](Cc1cnc[nH]1)C(=O)O [Carnosine, H-βAH-OH, reference compound] | – | – | not a good ·OH scavenger | 31.4 ± 4.2 | – | – | – | –
H-GHK-OH [reference compound] | – | – | – | 65.4 ± 0.008 | – | no decrease in the ABTS absorbance peak at 734 nm | only a slight decrease in the DPPH absorbance peak at 517 nm | –
